Data as given in patent publication US9522888B2, “Substituted bicyclic compounds” (BRISTOL-MYERS SQUIBB COMPANY, priority 2014, dated 2016).
Like-named read-outs stand apart in the source and are kept apart here.

Legend:
human S1P1 = human S1P1 (Homo sapiens (Human), UniProt P21453); assay: S1P1 binding assay (33P-S1P radioligand competition, CHO cell membranes)
Procedure: Membranes were prepared from CHO cells expressing human S1P1. Cells pellets (1×10^9 cells/pellet) were suspended in buffer containing 20 mM HEPES (4-(2-hydroxyethyl)-1-piperazineethanesulfonic acid), pH 7.5, 50 mM NaCl, 2 mM EDTA (Ethylenediaminetetraacetic acid) and Protease Inhibitor cocktail (Roche), and disrupted on ice using the Polytron homogenizer. The homogenate was centrifuged at 20,000 rpm (48,000 g) and the supernatant was discarded. The membrane pellets were resuspended in buffer containing 50 mM HEPES, pH 7.5, 100 mM NaCl, 1 mM MgCl2, 2 mM EDTA and stored in aliquots at −80° C. after protein concentration determination.

[1] = molecular target: S1P3 (membranes prepared from EDG3-Gal5-bla HEK293T cells) (Homo sapiens (Human), UniProt Q99500); assay: Receptor [35S] GTPγS binding assay (S1P3 GTPγS); type: biochemical
Procedure: (§1) Receptor [^35S] GTPγS Binding Assays: (S1P1 GTPγS/S1P3 GTPγS)
(§2) Compounds were loaded in a 384 Falcon v-bottom plate (0.5 μl/well in a 11 point, 3-fold dilution). Membranes prepared from S1P1/CHO cells or EDG3-Gal5-bla HEK293T cells (EDG3 equivalent S1P3) were added to the compound plate (40 μl/well, final protein 3 μg/well) with MULTIDROP®. [^35S] GTP (1250 Ci/mmol, Perkin Elmer) was diluted in assay buffer: 20 mM HEPES, pH7.5, 10 mM MgCl2, 150 mM NaCl, 1 mM EGTA (ethylene glycol tetraacetic acid), 1 mM DTT (Dithiothreitol), 10 μM GDP, 0.1% fatty acid free BSA, and 10 μg/ml Saponin to 0.4 nM. 40 μl of the [^35S] GTP solution was added to the compound plate with a final concentration of 0.2 nM. The reaction was kept at room temperature for 45 min. At the end of incubation, all the mixtures in the compound plate were transferred to Millipore 384-well FB filter plates via the VELOCITY11® Vprep liquid handler. The filter plate was washed with water 4 times by using the manifold Embla plate washer and dried at 60° C. for 45 min. MicroScint 20 scintillation fluid (30 μl) was added to each well for counting on the Packard TOPCOUNT®.
A smaller value for GTPγS S1P1 EC50 value indicated greater activity for the compound in the GTPγS S1P1 binding assay. A larger value for the GTPγS S1P3 EC50 value indicated less activity in the GTPγS S1P3 binding assay. […] Thus the compounds of the present invention may be used in treating, preventing, or curing various S1P1 receptor-related conditions while reducing or minimizing the side effects due to S1P3 activity. The selectivity of the compounds of the present invention indicate their potential use in treating, preventing, or curing autoimmune and inflammatory diseases such as multiple sclerosis, rheumatoid arthritis, inflammatory bowel disease, lupus, psoriasis, or vascular diseases, while reducing or minimizing possible side effects due to S1P3 activity. Other potential uses of the compounds of the present invention include minimizing or reducing rejection of transplanted organs, while reducing or minimizing side effects due to S1P3 activity.

[2] = molecular target: S1P1 (membranes prepared from S1P1/CHO cells) (Homo sapiens (Human), UniProt P21453); assay: Receptor [35S] GTPγS binding assay (S1P1 GTPγS); type: biochemical; details: for activity as an agonist of S1P1: GTPγS S1P1 binding assay, result in words
Procedure: as §1
as §2, with “TOPCOUNT®. […]” for “TOPCOUNT®.”

hS1P1/CHO cells = hS1P1/CHO cells (Homo sapiens (Human), UniProt P21453); assay: hS1P1 ERK phosphorylation (S1P1 pERK); type: cell-based; details: phosphate examples
Procedure: hS1P1 ERK Phosphorylation (S1P1 pERK)
hS1P1/CHO cells were plated into BD Amine 384-well plates the day before the assay. On the day of the assay, growth medium was removed and replaced with serum-free medium (Ham's F-12 Invitrogen) and incubated for 2 hours. Test compounds pre-diluted in HBSS (Gibco)/20 mM HEPES (Gibco) were transferred to the cell plates and incubated for 7 minutes at 37° C. Cells were lysed in lysis buffer (Perkin Elmer) and phospho-ERK was measured using the SureFire pERK kit (Perkin Elmer) as described by the manufacturer. Data was plotted as percentage activation of the test compound relative to the efficacy of 10 μM S1P.

[3] = 33P-S1P competition, membranes of CHO cells expressing human S1P1, read-out: S1P1 Binding IC50
[4] = [35S]GTPγS, EDG3-Gal5-bla HEK293T cell membranes, read-out: GTPγS S1P3 EC50
[5] = [35S]GTPγS, S1P1/CHO cell membranes, read-out: GTPγS S1P1 EC50
[6] = phosphate examples, read-out: S1P1 Binding
[7] = phosphate examples, read-out: S1P3 GTPγS
[8] = phosphate examples, read-out: S1P1 GTPγS

S1P3 (membranes prepared from EDG3-Gal5-bla HEK293T cells), sequence (Q99500 whole entry): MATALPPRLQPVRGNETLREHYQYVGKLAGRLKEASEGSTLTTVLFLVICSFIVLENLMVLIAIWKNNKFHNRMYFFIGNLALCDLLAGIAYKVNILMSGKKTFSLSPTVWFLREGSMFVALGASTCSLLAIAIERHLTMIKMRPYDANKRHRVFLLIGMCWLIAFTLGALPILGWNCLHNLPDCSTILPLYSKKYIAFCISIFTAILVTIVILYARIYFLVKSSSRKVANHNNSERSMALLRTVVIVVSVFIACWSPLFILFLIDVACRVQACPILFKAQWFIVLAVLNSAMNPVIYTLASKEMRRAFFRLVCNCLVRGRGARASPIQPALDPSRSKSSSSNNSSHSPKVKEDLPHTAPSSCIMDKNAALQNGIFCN
human S1P1, sequence (P21453 whole entry): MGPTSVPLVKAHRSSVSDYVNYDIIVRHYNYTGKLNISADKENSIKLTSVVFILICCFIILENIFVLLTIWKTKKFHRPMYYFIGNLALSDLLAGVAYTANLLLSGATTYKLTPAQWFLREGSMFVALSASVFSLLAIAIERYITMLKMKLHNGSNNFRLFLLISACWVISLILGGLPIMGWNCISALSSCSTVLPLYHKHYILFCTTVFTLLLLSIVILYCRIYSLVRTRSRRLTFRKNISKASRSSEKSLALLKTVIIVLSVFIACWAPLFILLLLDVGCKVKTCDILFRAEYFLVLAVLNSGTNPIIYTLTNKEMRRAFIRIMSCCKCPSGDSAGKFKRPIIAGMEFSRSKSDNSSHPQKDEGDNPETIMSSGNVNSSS
hS1P1/CHO cells, sequence (P21453 whole entry): as above
S1P1 (membranes prepared from S1P1/CHO cells), sequence (P21453 whole entry): as above

| Compound | EC50 [1, 4] [nM] | IC50 (human S1P1; [6]) [nM] | EC50 [1, 7] [nM] | EC50 [2, 8] [nM] | other results |
| --- | --- | --- | --- | --- | --- |
| COCCCCCC1CCc2cc([C@H]3CC[C@](N)(COP(=O)(O)O)C3)ccc2C1 (single isomer, unassigned) [Example 689] | > 2000 |  |  |  | IC50 (human S1P1; [3]): 1.7 nM; selectivity over S1P3 ([1]; GTPγS S1P1 versus GTPγS S1P3, result in words): selective over S1P3; EC50 ([1]; membranes prepared from EDG3-Gal5-bla HEK293T cells, read-out: GTPγS S1P3 EC50): > 2000 nM; activity as an agonist of S1P1 [2]: possessed activity as an agonist of S1P1; EC50 [2, 5]: 5.7 nM |
| COCCCCCC1CCc2cc([C@H]3CC[C@](N)(COP(=O)(O)O)C3)ccc2C1 (single isomer, unassigned) [Example 690] | > 625 |  |  |  | IC50 (human S1P1; [3]): 3 nM; EC50 [2, 5]: 21.4 nM |
| COCCCCCC1CCc2cc([C@@H]3CC[C@](N)(COP(=O)(O)O)C3)ccc2C1 (single isomer, unassigned) [Example 692] | > 625 |  |  |  | IC50 (human S1P1; [3]): 2.3 nM |
| COc1cccc(CCC2CCc3cc([C@H]4CC[C@](N)(COP(=O)(O)O)C4)ccc3C2)c1 (single isomer, unassigned) [Example 693] | > 4160 |  |  |  |  |
| COc1cccc(CCC2CCc3cc([C@H]4CC[C@](N)(COP(=O)(O)O)C4)ccc3C2)c1 (single isomer, unassigned) [Example 694] | > 1250 |  |  |  | EC50 [2, 5]: 38.6 nM |
| CCOCCCC1CCc2cc([C@H]3CC[C@](N)(COP(=O)(O)O)C3)ccc2C1 (single isomer, unassigned) [Example 695] | > 625 |  |  |  |  |
| CCOCCCC1CCc2cc([C@H]3CC[C@](N)(COP(=O)(O)O)C3)ccc2C1 (single isomer, unassigned) [Example 696] | > 1000 |  |  |  | EC50 [2, 5]: 1.2 nM |
| COc1ccccc1CC[C@@H]1CCc2cc([C@H]3CC[C@](N)(COP(=O)(O)O)C3)ccc2C1 (single isomer, unassigned) [Example 697] | > 1000 |  |  |  |  |
| COc1ccccc1CCC1CCc2cc(C3CC[C@](N)(COP(=O)(O)O)C3)ccc2C1 (single isomer, unassigned) [Example 698] | > 625 |  |  |  |  |
| COc1cccc(OCC2CCc3cc([C@@H]4CC[C@](N)(COP(=O)(O)O)C4)ccc3C2)c1 (single isomer, unassigned) [Example 701] | > 1250 |  |  |  |  |
| COc1cccc(OCC2CCc3cc([C@@H]4CC[C@](N)(COP(=O)(O)O)C4)ccc3C2)c1 (single isomer, unassigned) [Example 702] | > 625 |  |  |  |  |
| CC(C)=CCOCCO[C@@H]1CCc2cc(C3CCC(N)(COP(=O)(O)O)C3)ccc2C1 (single isomer, unassigned) [compound 580] |  | 10 to 100 | > 625 | 10 to 100 |  |
| N[C@@]1(COP(=O)(O)O)CC[C@@H](c2ccc3c(c2)CC[C@H](OCCOC2CCCCC2)C3)C1 (single isomer, unassigned) [compound 585] |  |  | > 625 | 10 to 100 |  |
| COc1ccccc1CCC1CCc2cc([C@H]3CC[C@](N)(COP(=O)(O)O)C3)ccc2C1 (some centres unmarked) [Example 697] |  |  |  |  | activity as an agonist of S1P1 [2]: possessed activity as an agonist of S1P1 |
| COc1ccccc1CC[C@@H]1CCc2cc([C@@H]3CC[C@](N)(COP(=O)(O)O)C3)ccc2C1 [Example 699] | > 625 |  |  |  |  |
| CCCCCCN1CCc2cc([C@H]3CC[C@](N)(COP(=O)(O)O)C3)ccc2C1=O [compound 416] |  | 1000 to 10000 | > 625 |  |  |
| CCCCCCC1CCc2cc([C@H]3CC[C@](N)(COP(=O)(O)O)C3)ccc2O1 (some centres unmarked) [compound 419] |  |  | > 625 |  | EC50 (hS1P1/CHO cells): 10 to 100 nM |

| Compound | EC50 [1, 4] [nM] | IC50 (human S1P1; [6]) [nM] | EC50 [1, 7] [nM] | EC50 [2, 8] [nM] | other results |
| --- | --- | --- | --- | --- | --- |
| CCCCCCO[C@@H]1CCc2cc([C@@H]3CC[C@](N)(COP(=O)(O)O)C3)ccc2C1 [compound 435] |  | 10 to 100 | > 625 |  |  |
| COc1ccc(F)c(OC[C@@H]2CCc3cc([C@H]4CC[C@](N)(COP(=O)(O)O)C4)ccc3C2)c1 [compound 486] |  |  |  | < 10 | EC50 (hS1P1/CHO cells): 10 to 100 nM |
| CC(C)CN(C)C(=O)c1cccc(OC[C@@H]2CCc3cc([C@H]4CC[C@](N)(COP(=O)(O)O)C4)ccc3C2)c1 [compound 500] |  |  | > 625 | < 10 | EC50 (hS1P1/CHO cells): < 10 nM |
| CC(C)COCC[C@@H]1CCc2cc([C@H]3CC[C@](N)(COP(=O)(O)O)C3)ccc2C1 [compound 542] |  |  | > 625 | < 10 | EC50 (hS1P1/CHO cells): < 10 nM |
| CC(C)COCC[C@H]1CCc2cc([C@H]3CC[C@](N)(COP(=O)(O)O)C3)ccc2C1 [compound 543] |  |  | > 625 | < 10 | EC50 (hS1P1/CHO cells): < 10 nM |
| COc1ccc(C[C@@H]2CCc3cc([C@H]4CC[C@](N)(COP(=O)(O)O)C4)ccc3C2)cc1F [compound 554] |  |  | > 625 | 10 to 100 | EC50 (hS1P1/CHO cells): 10 to 100 nM |
| N[C@@]1(COP(=O)(O)O)CC[C@@H](c2ccc3c(c2)CC[C@H](OCCOCc2ccccc2)C3)C1 [compound 581] |  | < 10 | > 625 | < 10 |  |
| C=CCCOCCO[C@H]1CCc2cc([C@@H]3CC[C@@](N)(COP(=O)(O)O)C3)ccc2C1 [compound 584] |  | < 10 | > 625 | < 10 |  |
| CCCCCCC1CCc2nc([C@@H]3CC[C@@](N)(COP(=O)(O)O)C3)ccc2C1 (some centres unmarked) [compound 612] |  | 1000 to 10000 | > 625 | 10 to 100 |  |
| N[C@]1(COP(=O)(O)O)CCC(c2ccc3c(c2)CN(CCCc2ccccc2)C3=O)C1 (some centres unmarked) [compound 614] |  | 1000 to 10000 | > 625 | 100 to 1000 |  |
| CC1(C)c2cc([C@@H]3CC[C@](N)(COP(=O)(O)O)C3)ccc2C(=O)N1CCCc1ccccc1 [compound 615] |  | 100 to 1000 | > 625 | 100 to 1000 |  |
| CCCCCC(=O)N1CCc2cc([C@H]3CC[C@@](N)(COP(=O)(O)O)C3)ccc2C1 [compound 617] |  | 100 to 1000 | > 625 |  |  |
| CCCCCC[C@H]1CCc2cc([C@H]3CC[C@](N)(COP(=O)(O)O)C3)c(I)cc2C1 [compound 620] |  | 10 to 100 | > 625 | < 10 |  |
| CCCCCC[C@H]1CCc2cc([C@H]3CC[C@](N)(COP(=O)(O)O)C3)c(C)cc2C1 [compound 622] |  | < 10 | > 625 | < 10 |  |
| CCCCCC(=O)OC1CCc2cc([C@H]3CC[C@](N)(COP(=O)(O)O)C3)ccc2C1 (some centres unmarked) [compound 623] |  | < 10 | > 625 | < 10 |  |
| CC(C)CO/N=C1/CCc2cc([C@H]3CC[C@](N)(COP(=O)(O)O)C3)ccc2C1 [compound 666] |  | 100 to 1000 | > 625 | 100 to 1000 |  |
